Results: the supplement of paper PMC8253809

What was measured:
[1] = system: DIPGX29 (H3.3 K27M diffuse intrinsic pontine glioma line); test: EC50 (inflection of fitted growth-inhibition curve) (log10 M)
Procedure, shortened: (§1)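 Compounds were delivered by pin tool as a 10-point threefold dilution series with a mean top concentration of 35 μM, in triplicate, to patient-derived pHGG/DIPG cell lines and astrocyte controls growing on 1% Geltrex-coated 384-well plates. Incubation lasted 7 days, or 3 days for iAstro, at 37 °C with 5% CO2. EC50 and maximal response (yFin) come from the three- or four-parameter log-logistic fit with the lowest AICc, applied to pooled, log2-transformed CellTiter-Glo luminescence normalised per plate to % activity between solvent (negative) and positive control wells.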

[2] = system: DIPGX37 (H3.3 K27M diffuse intrinsic pontine glioma line); test: as above
Procedure, shortened: as §1

[3] = system: HGGX39 (paediatric high-grade glioma line); test: as above
Procedure, shortened: as §1

[4] = system: HGGX6 (H3.3 G34R paediatric high-grade glioma line); test: as above
Procedure, shortened: as §1

[5] = system: DIPGX29; test: maximal growth inhibition (yFin) relative to DMSO / staurosporine; higher = more efficacious
Procedure, shortened: as §1

[6] = system: DIPGX37; test: as above
Procedure, shortened: as §1

[7] = system: HGGX39; test: as above
Procedure, shortened: as §1

[8] = system: HGGX6; test: as above
Procedure, shortened: as §1

[9] = system: DIPGX29; test: area under dose-response curve of % growth inhibition (log2 RLU vs DMSO / staurosporine), 1e-11 to 1e-4 M (% x log10 M); higher = more growth inhibition
Procedure, shortened: (§2)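 Area under the curve was derived with the trapezoid rule from a fitted log-logistic curve, switching to a smoothing spline if the sigmoid fit failed. It rested on per-plate % activity between solvent and positive controls, calculated from log2-transformed CellTiter-Glo luminescence after 7 days of exposure (3 days for iAstro) at 37 °C, 5% CO2. Patient-derived pHGG/DIPG lines and astrocytes on 1% Geltrex-coated 384-well plates received a 10-point threefold dilution series, mean top concentration 35 μM, in triplicate.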

[10] = system: DIPGX37; test: as above
Procedure, shortened: as §2

[11] = system: HGGX39; test: as above
Procedure, shortened: as §2

[12] = system: HGGX6; test: as above
Procedure, shortened: as §2

| SMILES | EC50 (log10 M) [1] | EC50 (log10 M) [2] | EC50 (log10 M) [3] | EC50 (log10 M) [4] | maximal growth inhibition [5] [%] | maximal growth inhibition [6] [%] | maximal growth inhibition [7] [%] | maximal growth inhibition [8] [%] | area under dose-response curve [9] | area under dose-response curve [10] | area under dose-response curve [11] | area under dose-response curve [12] |
| --- | --- | --- | --- | --- | --- | --- | --- | --- | --- | --- | --- | --- |
| COc1cc([C@@H]2c3cc4c(cc3[C@@H](O[C@@H]3O[C@@H]5CO[C@@H](c6cccs6)O[C@H]5[C@H](O)[C@H]3O)[C@H]3COC(=O)[C@H]23)OCO4)cc(OC)c1O [TENIPOSIDE] | -6.01 | -5.43 | -5.94 | -5.36 | 33.5 | 50.7 | 37.6 | 31.2 | 63.2 | 81.2 | 75.2 | 42.9 |
| Clc1ccc(C(Cn2ccnc2)OCc2ccsc2Cl)c(Cl)c1 (stereo unspecified) [TIOCONAZOLE] | -4.77 | -4.73 | -4.79 | -4.82 | 48.3 | 78 | 65.3 | 46.3 | 36.4 | 56 | 51.3 | 38.1 |
| CN1CCN(CCCN2c3ccccc3Sc3ccc(C(F)(F)F)cc32)CC1 [TRIFLUOPERAZINE] | -4.89 | -4.88 | -4.86 | -4.78 | 82.9 | 87.2 | 90.3 | 80.2 | 74.2 | 76.8 | 87.4 | 62.3 |
| COc1cc2nc(N3CCCC3)nc(NCCCCCN3CCCC3)c2cc1OC [UNC0379] | -4.88 | -5.05 | -4.89 | -4.91 | 71.8 | 71.5 | 72.1 | 70.1 | 70.8 | 75.1 | 69.3 | 73.6 |
| COc1cc2c(NC3CCN(C(C)C)CC3)nc(N3CCC(F)(F)CC3)nc2cc1OCCCN1CCCC1 [UNC0642] | -4.96 | -5.19 | -4.84 | -5.05 | 74.9 | 70.6 | 74.9 | 72.8 | 71.3 | 96 | 62.5 | 75.5 |
| CCCc1cc(C)[nH]c(=O)c1CNC(=O)c1cc(-c2ccc(N3CCN(C(C)C)CC3)nc2)cc2c1cnn2C(C)C [UNC1999] | -5.02 | -5.18 | -4.92 | -5.11 | 73.8 | 73.8 | 76.4 | 72.5 | 75 | 85.9 | 70.2 | 83.6 |
| COc1cc2/c(=N/c3ccc(Br)cc3F)nc[nH]c2cc1OCC1CCN(C)CC1 [VANDETANIB] | -4.74 | -4.7 | -4.75 | -4.7 | 80.7 | 80.9 | 80.4 | 77.1 | 68.7 | 65.1 | 60.3 | 54.2 |
| O=C(CCCCCCC(=O)Nc1ccccc1)NO [VORINOSTAT] | -4.98 | -4.65 | -4.71 | -4.68 | 74.2 | 68 | 64.3 | 76.9 | 77.5 | 58.2 | 60.1 | 83.9 |
